Test results published in patent US9765063B2, “Amido compounds as RORγt modulators and uses thereof” (New York University, priority 2011, dated 2017).
Entries after “also recorded” stand apart in the source; their conditions may differ.

Key:
[1] = test system: mouse Th17 cell differentiation; test: Th17 assay: mouse Th17 polarization (IL-17a producing cells, FACS); format: cell-based
Experimental: (§1) Percentage of DMSO treated IL-17a producing cells was set at 100. Naive mouse CD4 T cells (CD25^−, CD62L^+, and CD44^low-int) were sorted and cultured with CD3/CD28 stimulatory antibodies in the presence of TGFβ (0.1 ng/ml) and IL6 (20 ng/ml). Compounds were added on Day 1 and cells were analyzed on Day 4. For intracellular cytokine staining, cells were incubated for 5 h with phorbol ester (50 ng/ml; Sigma), ionomycin (500 ng/ml; Sigma) and GolgiStop (BD). When needed, surfaces were stained by incubation for 15 min on ice with PECy7-conjugated CD4 (BD Biosciences). The Cytofix/Cytoperm buffer set (BD) was used for intracellular staining. Cells were fixed and made permeable for 30 min on ice and were stained for 30 min on ice in permeabilization buffer with Alexa647-conjugated anti-IL17a (eBioscience) and PE-conjugated anti-IFNg (eBioscience). An LSR II (BD Biosciences) and FlowJo software (Tree Star) were used for flow cytometry. RORg IC50 value acquired from the S2 cell reporter assay is listed for comparison.
as §1, with “With respect to the methodological details pertaining to FIG. 1, naive” for “Percentage of DMSO treated IL-17a producing cells was set at 100. Naive mouse”, “(BD).” for “(BD). When needed, surfaces were stained by incubation for 15 min on ice with PECy7-conjugated CD4 (BD Biosciences).”, “anti-IFNγ” for “anti-IFNg”, “cytometry.” for “cytometry. RORg IC50 value acquired from the S2 cell reporter assay is listed for comparison.”

[2] = test system: human Th17 cell differentiation; test: Human Th17 cell differentiation (FACS, FIG. 2); format: cell-based; details: FIG. 2, FACS, 0.5 μM; listed as NCGC00242624
Experimental: • 1) S2 cell reporter system: Identified hits from HTS are further screened and their specificity confirmed by testing against RORγ-luc, VP16-luc, RORα-luc, and DHR3-luc reporter S2 cell lines. Compounds either having no activity on VP16, RORα, and DHR3 or having ten times higher IC50 values on such reporters are selected for further tests. • 2) Cytokine induced mouse Th17 cells differentiation. Effects on mouse endogenous RORγt in a relevant physiological setting were determined by testing compounds in the Th17 cell differentiation assay. Compounds having RORγt inhibitory activity are predicted to suppress Th17 cell differentiation. Th1 or regulatory T cell differentiation was used as a counter-screen method to select specific compounds that only affect Th17 cell differentiation without having pleiotrophic effects on general T cell proliferation or cytokine production. • 3) ROR dependent Th17 cell differentiation. Compounds were further tested, by examining their effects on T cells expressing RORα or RORγ. […] Compounds affecting IL17a production or ROR regulatory pathways, however, are expected to inhibit both. • 4) Human Th17 cell differentiation. Compound effects on human RORγt will be tested by treating human cord blood CD4 T cells with select compounds to determine if such compounds alter differentiation into Th17 lineages.
For Th1 differentiation, IL12 (10 ng/ml) and IL2 (100 U/ml) were added to naive CD4 T cell cultures instead of TGFβ and IL6.

In the case of `COc1cc(O)c(C(CC(=O)N2CC(C)CC(C)C2)c2ccc(C(=O)O)cc2)c(OC)c1` (stereo not drawn) [Compound 99, 4-(3-(3,5-Dimethylpiperidin-1-yl)-1-(2-hydroxy-4,6-dimethoxyphenyl)-3-oxopropyl)benzoic acid], the “mouse Th17 cell differentiation, as measured by IL17a production” value ([1]; FIG. 1, FACS, at the indicated concentrations, listed as NCGC00242624) is reported as “suppresses mouse Th17 cell differentiation with similar activity to NCGC00238427; also recorded: suppress mouse Th17 cell differentiation”, the IC50 ([1]; naive mouse CD4 T cells, TGFβ and IL6, compounds added Day 1, analyzed Day 4, read-out: Th 17 IC50) is reported as 1 to 10 µM and the “human Th17 cell differentiation” value [2] is reported as “selectively suppress human Th17; also recorded: suppresses human Th17 cell differentiation to a degree similar to that of NCGC00238427; also recorded: selectively suppresses human Th17 cell differentiation”.
